What was measured:
guinea pigs = experiment: Evaluation of mydriatic action (pupil diameter, pupillary light reflex) after repeated topical administration to one eye; format: in vivo, guinea pig; conditions: for Pupil diameter before administration: before administration on day 5, average of 3 guinea pigs; for Maximum pupil diameter: longest average diameter among measurement times on day 5
Protocol: An atropine solution was repeatedly topically administered to one eye of a guinea pig to evaluate the effect of the solution on mydriasis.
Atropine sulfate hydrate and glycerin were dissolved in water for injection to prepare 0.001%, 0.0003% and 0.0001% atropine solutions without adjusting the pH.
Each of the prepared solutions was topically administered to the left eye of guinea pigs (the left eyes of 3 guinea pigs for each solution) in a volume of 10 μL once daily for 5 days. The pupil diameter of each guinea pig was measured before the administration on day 5 as well as 1, 2 and 4 hours after the administration to observe the pupillary light reflex. The measured pupil diameters of each guinea pig at each measurement time were averaged to obtain the average value. The obtained average value was defined as the average pupil diameter. Among each average pupil diameter at each measurement time, the longest diameter was defined as the maximum pupil diameter.

guinea pig myopia model = experiment: Test on suppression of myopia progression (axial length elongation and refractive error) in guinea pig myopia model; format: in vivo, guinea pig (Slc:Hartley); conditions: for Difference of axial lengths / Difference of refraction: 10 μL topical to goggled right eye once daily 14 days, right eye − left eye, average n=6; for Difference of axial lengths / Difference of refraction / Suppression rate of axial length elongation / Suppression rate of refractive error: day 14; for Suppression rate of axial length elongation / Suppression rate of refractive error: vs vehicle control group
Protocol: According to the following procedures, the effect of AFDX0250 on the suppression of myopia progression (the axial length elongation and the refractive error) was evaluated.
AFDX0250 was dissolved in purified water with a buffering agent and a tonicity agent to prepare 0.5% AFDX0250 solution. 1 mol/L sodium hydroxide reagent solution or dilute hydrochloric acid was added to the solution to adjust the pH thereof to neutral. Also, a buffering agent and a tonicity agent were dissolved in purified water to prepare a neutral vehicle. 9.8 mL of the vehicle was mixed with 0.2 mL of 0.5% AFDX0250 solution and stirred to prepare 0.01% AFDX0250 solution. 3 mL, 4 mL and 4.5 mL of the vehicles were mixed with 2 mL, 1 mL and 0.5 mL of 0.01% AFDX0250 solutions, respectively, and stirred to prepare 0.004%, 0.002% and 0.001% AFDX0250 solutions.
A test tube with a diameter of 18 mm was cut off at the level of 10 mm from the bottom, and the cut-off bottom part was glued to one side of Velcro tape (about 20 mm square) with a hole of an appropriate diameter in the center with an adhesive agent to prepare a lens (goggle). 3-week-old guinea pigs (Slc:Hartley) (n=30) were obtained, and the prepared goggle was covered to the right eye of each guinea pig with an adhesive agent to induce myopia to the guinea pigs. The left eye thereof without goggle was used as control.
The […] group, 0.004% AFDX0250 solution administration group, […] group (control group) (n=6 per group). In the AFDX0250 solution administration groups, 10 μL of the AFDX0250 solution in each concentration was topically administered to the right eye of each guinea pig once daily for 14 days from the day when the right eye was covered with the goggle (day 0) to day 13. In the control group, 10 μL of the vehicle was topically administered to the right eye of each guinea pig once daily for 14 days from the day when the right eye was covered with the goggle (day 0) to day 13. In the all groups, 10 μL of the vehicle was topically administered to the left eye at the same frequency of administration as that of each group daily for 14 days from day 0 to day 13. The guinea pigs were reared under a normal rearing condition.
On day 14 from the myopia induction, the axial lengths of right and left eyeballs were measured with an ultrasound axial length measurement device ECHOSCAN US-500 (A-scan) (NIDEK CO., LTD.), and the refractions were measured with the auto refractometer AR-1a (NIDEK CO., LTD.). The difference of axial lengths and the suppression rate of the axial length elongation as well as the difference of refraction and the suppression rate of the refractive error were calculated according to the following formulae. The calculation was performed in Microsoft Excel. Difference of axial lengths (mm)=Axial length of right eye (mm)−Axial length of left eye (mm) Suppression rate of axial length elongation (%)=(1−Difference of axial lengths in AFDX0250 solution administration group/Difference of axial lengths in control group)×100 (Formula) Difference of refraction (D)=Refraction of right eye (D)−Refraction of left eye (D) Suppression rate of refractive error (%)=(1−Difference of refraction in AFDX0250 solution administration group/Difference of refraction in control group)×100 (Formula) (Test Result)
AFDX0250 was dissolved in purified water with a buffering agent and a tonicity agent to prepare 0.5% AFDX0250 solution. 1 mol/L sodium hydroxide reagent solution or dilute hydrochloric acid was added to the solution to adjust the pH thereof to neutral. Also, a buffering agent and a tonicity agent were dissolved in purified water to prepare a neutral vehicle. 4 mL and 4.8 mL of vehicles were mixed with 1 mL and 0.2 mL of 0.5% AFDX0250 solutions, respectively, and stirred to prepare 0.1% and 0.02% of AFDX0250 solutions. Also, 4 mL of the vehicle was mixed with 1 mL of 0.02% AFDX0250 solution and stirred to prepare 0.004% AFDX0250 solution. […]

[1] = Comparative Example 1, 0.004% solution
[2] = Comparative Example 1, 0.004% solution, topical once daily 14 days
[3] = Comparative Example 1, 0.02% solution
[4] = Comparative Example 1, 0.02% solution, topical once daily 14 days
[5] = Comparative Example 1, 0.1% solution
[6] = Comparative Example 1, 0.1% solution, topical once daily 14 days
[7] = Comparative Example 1, 0.5% solution
[8] = Comparative Example 1, 0.5% solution, topical once daily 14 days
[9] = Comparative Example 2, 0.004% solution
[10] = Comparative Example 2, 0.004% solution, topical once daily 14 days
[11] = Comparative Example 2, 0.01% solution
[12] = Comparative Example 2, 0.01% solution, topical once daily 14 days
[13] = Comparative Example 2, 0.02% solution
[14] = Comparative Example 2, 0.02% solution, topical once daily 14 days
[15] = Comparative Example 2, 0.1% solution
[16] = Comparative Example 2, 0.1% solution, topical once daily 14 days
[17] = Comparative Example 3, 0.0001% solution, 10 μL topical to left eye once daily 5 days
[18] = Comparative Example 3, 0.0003% solution, 10 μL topical to left eye once daily 5 days
[19] = Comparative Example 3, 0.0003% solution, 10 μL topical to left eye once daily 5 days, day 5
[20] = Comparative Example 3, 0.001% solution, 10 μL topical to left eye once daily 5 days
[21] = Comparative Example 3, 0.001% solution, 10 μL topical to left eye once daily 5 days, day 5

Structure (SMILES): CCN(CC)CC1CCCCN1CC(=O)N1c2ccccc2C(=O)Nc2cccnc21 (stereo not drawn) [AFDX0116, 11-[2-[2-[(diethylamino)methyl]-1-piperidinyl]acetyl]-5,11-dihydro-6H-pyrido[2,3-b][1,4]benzodiazepin-6-one]
- Mydriatic action (pupil diameter and pupillary light reflex, in words) (guinea pigs; guinea pig, in vivo): increased the pupil diameter and decreased the pupillary light reflex
- Measurement time of maximum pupil diameter (guinea pigs; guinea pig, in vivo, 5 days): 2 h
- Difference of axial lengths (guinea pig myopia model; [1]): 0.19 mm
- Difference of refraction (guinea pig myopia model; [1]): −4.74 D
- Suppression rate of axial length elongation (guinea pig myopia model; [2]): 21.14%
- Suppression rate of refractive error (guinea pig myopia model; [2]): 45.54%
- Difference of axial lengths (guinea pig myopia model; [3]): 0.09 mm
- Difference of refraction (guinea pig myopia model; [3]): −2.17 D
- Suppression rate of axial length elongation (guinea pig myopia model; [4]): 62.95%
- Suppression rate of refractive error (guinea pig myopia model; [4]): 73.10%
- Difference of axial lengths (guinea pig myopia model; [5]): 0.09 mm
- Difference of refraction (guinea pig myopia model; [5]): −1.90 D
- Suppression rate of axial length elongation (guinea pig myopia model; [6]): 63.86%
- Suppression rate of refractive error (guinea pig myopia model; [6]): 73.17%
- Difference of axial lengths (guinea pig myopia model; [7]): 0.03 mm
- Difference of refraction (guinea pig myopia model; [7]): −2.10 D
- Suppression rate of axial length elongation (guinea pig myopia model; [8]): 87.73%
- Suppression rate of refractive error (guinea pig myopia model; [8]): 75.86%
- Difference of axial lengths (guinea pig myopia model; [9]): 0.12 mm
- Difference of refraction (guinea pig myopia model; [9]): −6.59 D
- Suppression rate of axial length elongation (guinea pig myopia model; [10]): 22.52%
- Suppression rate of refractive error (guinea pig myopia model; [10]): 9.96%
- Difference of axial lengths (guinea pig myopia model; [11]): 0.12 mm
- Difference of refraction (guinea pig myopia model; [11]): −3.61 D
- Suppression rate of axial length elongation (guinea pig myopia model; [12]): 21.44%
- Suppression rate of refractive error (guinea pig myopia model; [12]): 50.71%
- Difference of axial lengths (guinea pig myopia model; [13]): 0.05 mm
- Difference of refraction (guinea pig myopia model; [13]): −2.52 D
- Suppression rate of axial length elongation (guinea pig myopia model; [14]): 69.73%
- Suppression rate of refractive error (guinea pig myopia model; [14]): 65.61%
- Difference of axial lengths (guinea pig myopia model; [15]): 0.05 mm
- Difference of refraction (guinea pig myopia model; [15]): −2.42 D
- Suppression rate of axial length elongation (guinea pig myopia model; [16]): 68.65%
- Suppression rate of refractive error (guinea pig myopia model; [16]): 66.87%
- Concentration showing the anti-myopic effect (comparison in words) (guinea pig myopia model; Comparative Examples 1 and 2 compared with Examples 1 and 2): higher than that of AFDX0250
- Effect on the axial length elongation and the refractive error (summary in words) (guinea pig myopia model; summary of Examples 1 and 2 (AFDX0250) and Comparative Examples 1 and 2 (AFDX0116), topical once daily 14 days): suppressed the axial length elongation and the refractive error

Structure (SMILES): CN1[C@@H]2CC[C@H]1CC(OC(=O)C(CO)c1ccccc1)C2.CN1[C@@H]2CC[C@H]1CC(OC(=O)C(CO)c1ccccc1)C2.O.O=S(=O)(O)O (stereo partly drawn) [atropine, Atropine sulfate hydrate]
- Pupil diameter before administration (guinea pigs; [17]): 2.3 mm
- Decreased pupillary light reflex (guinea pigs; Comparative Example 3, 0.0001% solution, 10 μL topical to left eye once daily 5 days, day 5): 0/3
- Maximum pupil diameter (guinea pigs; [17]): 2.8 mm
- Pupil diameter before administration (guinea pigs; [18]): 3.0 mm
- Decreased pupillary light reflex (guinea pigs; [19]): 1/3
- Measurement time of maximum pupil diameter (guinea pigs; [19]): 1 h
- Maximum pupil diameter (guinea pigs; [18]): 3.8 mm
- Mydriatic action (pupil diameter and pupillary light reflex, in words) (guinea pigs; Comparative Example 3, 0.001% and 0.0003% atropine solution administration groups): the increased pupil diameter and the decreased pupillary light reflex were found
- Pupil diameter before administration (guinea pigs; [20]): 2.6 mm
- Decreased pupillary light reflex (guinea pigs; [21]): 3/3
- Measurement time of maximum pupil diameter (guinea pigs; [21]): 1 h
- Maximum pupil diameter (guinea pigs; [20]): 4.9 mm
